Assays:
[1] = test system: APP and C-terminal fragments in the brains of 3xTg-AD mice; assay: Western blot of brain extracts with antibody CT20, 2-month treatment (Examples 4 and 5); format: in vivo, mouse; conditions: antibody CT20, brains of 3xTg-AD mice, 5 mg/kg/day for 2 months
Method: (§1) 3xTg-AD mice of approximately one year of age were treated for 2 months with ST101. An average dose of 5 mg/kg/day was administered in drinking water (calculated dose, based on mean water consumption). Behavioral effects were tested by assessing performance on the Morris Water Maze. Biochemical effects were examined by measuring brain content of Aβ and APP by ELISA and Western Blot.
To attempt to determine at what part in the Aβ processing/release pathway ST101 may be active, a series of Western blot analyses of brain extracts from the same mice were conducted. These Westerns blots examined intact APP as well as products of its post-translational processing and subsequent degradation.
FIG. 4 is a Western blot that depicts APP C-terminal fragments detected by antibody CT20 in the brains of ST101-treated (S) 3xTg-AD mice, relative to untreated (C) 3xTg mice-AD.
FIG. 5 is a Western blot that depicts APP and degradation fragments detected by antibody CT20 in the brains of ST101-treated (S) 3xTg-AD mice, relative to untreated (C) 3xTg-AD mice. “CT20” stands for full length APP species, and “Actin” stands for anti-beta-actin antibody as a protein loading control.

[2] = test system: APP C-terminal fragments in the brains of 3xTg-AD mice; assay: Western blot of brains with antibody CT20, 10-month treatment (Example 7); format: in vivo, mouse; conditions: antibody CT20, 3xTg-AD mice, 5 or 1 or 0.1 mg/kg/day for 10 months; in some samples
Method: 3xTg-AD mice of approximately 3 months of age were treated for 10 months with ST101. An average dose of 5 or 1 or 0.1 mg/kg/day was administered in drinking water (calculated dose, based on mean water consumption).
FIGS. 7A-C are Western blots that depict APP C-terminal fragments detected by antibody CT20 in the brains of ST101-treated (S) 3xTg-AD mice, relative to untreated (C) 3xTg-AD mice.

3xTg-AD mice = assay: Morris water maze in 3xTg-AD mice; format: in vivo, mouse
Method: as §1
Behavioral Effects: Performance of 3xTg-AD Mice in the Morris Water Maze (MWM), adapted from Roozendaal et al., Proc. Natl. Acad. Sci. U.S.A. 100: 1328-1333 (2003).
The MWM tests both spatial memory (i.e. hippocampus dependent) and cued learning (i.e. non-hippocampal) in rodents. The maze is a circular tank filled with opaque water. Mice are placed in the water and must swim to find and escape onto a platform submerged 1.5 cm beneath the surface of the water. The time (in seconds) required to find the platform is recorded. Animals rely on visual cues in the room containing the tank in order to find the platform on successive challenges. Training was conducted daily for seven consecutive days.
Retention of training was assessed twice, 24 and 72 hours after the final training trial. Animals were subjected to a 60-second free swim in the tank with the platform removed. Parameters measured included (1) latency: time required to reach the former platform location and (2) crosses: the number of times the animal swam across the former platform location.

[3] = test system: rodent models of learning and memory; conditions: cited from earlier work
N2a cells = assay: Aβ production by N2a cultured cells, ELISA of tissue culture medium; format: cell-based, murine; conditions: 24 hours treatment, vs control
Method: N2a is a murine neuroblastoma cell line that is known to produce amyloid peptides Aβ1-40 and Aβ1-42 in amounts measurable by ELISA assays. These forms of Aβ have been correlated with the pathology in AD brain and Aβ1-42 in particular is postulated to have the ability to block α7 nicotinic receptors and to produce direct neurotoxic effects. N2a cells were treated for 24 hours with ST101 added to the tissue culture medium. Tissue culture medium was collected and analyzed by ELISA for the presence of Aβ.
FIGS. 1A and 1B are bar graphs that depict the effect of the compound ST101 on Aβ production by N2a cells. FIG. 1A is a bar graph that depicts the Aβ concentration in the cell culture medium as a function of ST101 concentration compared to control. FIG. 1B a bar graph that depicts the ratio of Aβ1-42 to Aβ1-40 as a function of ST101 concentration compared to control.

[4] = test system: APP C-terminal fragments in the brains of 3xTg-AD mice; assay: Western blot of brains with antibody 1565-1, 2.5-month treatment (Example 8); format: in vivo, mouse; conditions: antibody 1565-1, 3xTg-AD mice, 5 mg/kg/day for 2.5 months
Method: 3xTg-AD mice of approximately 12 months of age were treated for 2.5 months with ST101. An average dose of 5 mg/kg/day was administered in drinking water (calculated dose, based on mean water consumption).
FIG. 8 is a Western blot that depicts C-terminal fragments detected by antibody 1565-1 (Epitomics Inc.) in the brains of ST101-treated (S) 3xTg-AD mice, relative to untreated (C) 3xTg mice-AD.

acetylcholine (ACh) = assay: Nicotine-stimulated release of acetylcholine
[5] = test system: extracellular ACh and dopamine; assay: Extracellular ACh and dopamine concentrations in cerebral cortex and hippocampus; format: in vivo
[6] = test system: Senescence Accelerated Mouse 8 (SAMP8); conditions: cited from earlier work
[7] = 5 mg/kg/day for 2 months, at both 24 and 72 hours after training

Q: For `O=C1N=C2C=CC=CN2C12Cc1ccccc1C2` [ST101, spiro(imidazo[1,2-a]pyridin-2(3H)-one-3,2′-indan)], which “C83 C-terminal APP fragment” value ([1]; vs untreated) is on record?
A: substantial decrease

Q: And the “C99 C-terminal APP fragment” value ([1]; vs untreated)?
A: substantial decrease

Q: What about the “major APP degradation intermediate (~50 kDa)” value ([1]; vs untreated) of the same compound?
A: disappearance or significant reduction

Q: What about the “novel, longer C-terminal fragment of about 17 kDa” value ([1]; vs untreated) of the same compound?
A: appearance

Q: And the “full-length APP species (band shifts)” value ([1]; some full-length species)?
A: slightly lowered molecular weight

Q: What about the “major APP degradation intermediate (~50 kDa)” value [2] of the same compound?
A: disappearance or significant reduction

Q: And the “novel, longer C-terminal fragment of about 17 kDa” value [2]?
A: appearance

Q: What about the “crosses during retention testing” value (3xTg-AD mice; [7]) of the same compound?
A: increases in crosses

Q: And the “latency during retention testing” value (3xTg-AD mice; [7])?
A: reductions in latency

Q: And the “latency on successive days of the training” value (3xTg-AD mice; 5 mg/kg/day in drinking water for 2 months, vs controls)?
A: greater reductions in latency

Q: What about the “memory deficits induced by chemical amnesic agents” value ([3]; methamphetamine, MK-801, scopolamine) of the same compound?
A: attenuates

Q: And the age-impaired memory ([3]; rodent models)?
A: significantly improves

Q: And the “Aβ1-40 in cell culture medium” value (N2a cells)?
A: without major effects

Q: What about the “Aβ1-42 in cell culture medium” value (N2a cells) of the same compound?
A: significantly reduced

Q: What about the “longer C-terminal fragment of about 17 kDa” value [4] of the same compound?
A: not observed

Q: And the “APP C99 fragment” value ([4]; vs untreated)?
A: disappearance or significant reduction

Q: What about the “nicotine-stimulated release of acetylcholine (ACh)” value (acetylcholine (ACh)) of the same compound?
A: potentiates

Q: What about the “extracellular ACh concentrations” value ([5]; cerebral cortex) of the same compound?
A: increases

Q: And the “extracellular concentrations of ACh” value ([5]; hippocampus)?
A: increases

Q: And the “extracellular concentrations of dopamine” value ([5]; hippocampus)?
A: increases

Q: And the “accumulation of Aβ-like deposits” value ([6]; brain tissue)?
A: decreased

Q: What about the “learning and memory functions” value [6] of the same compound?
A: improvement

From patent US20100168135A1, “Method of Inducing Cleavage of Amyloid Precursor Protein to Form a Novel Fragment” (priority 2008, published 2010)
